Test results as given in PMC7663809, “Dual-Inhibitors of N-Myc and AURKA as Potential Therapy for Neuroendocrine Prostate Cancer” (International Journal of Molecular Sciences, 2020).

Key:
[1] = target: N-Myc-Max DBD (Homo sapiens, UniProt P04198+P61244); assay: Biolayer interferometry: binding of N-Myc-Max complex to biotinylated E-box DNA; settings: 100 µM and 200 µM
Experimental: The direct interaction between biotinylated E-box oligo immobilized on a streptavidin biosensor and a purified N-Myc-Max complex (0.05 mg/ml) was quantified by BLI using OctetRED (ForteBio). The DNA was first bound to the super-streptavidin sensors. The sensors were next moved into wells containing the reaction buffer (20 mM Tris pH 8, 150 mM NaCl, 5% glycerol, 0.2 mM TCEP, 5% dimethylsulfoxide) for measuring the baseline and next into the N-Myc-Max complex alone or in presence of the tested inhibitors to study the association of the complex to the DNA.

[2] = tested on: HO15.19 cells; assay: Growth / viability in Myc negative cell line HO15.19; type: cell-based
Experimental: (§1) NCI-H660 cells were purchased from the American Type Culture Collection (ATCC) and grown in RPMI medium supplemented with 5% fetal bovine serum (FBS), 1% Isulin-Transferrin-Selenium (Thermo Fisher, 41400-045, Waltham, MA, USA), 10 nM b-estradiol (Sigma, E8875; Darmstadt, Germany), 10 nM hydrocortisone (Sigma H0888), and 1% matrigel. HO15.19 cells were a generous gift from John Sidivy at Brown University and were cultured in Dulbecco’s modified Eagle’s medium (DMEM) (ATCC 30–2002) supplemented with 10% FBS. LNCaP-N-Myc and 22rv1-N-Myc cells were a generous gift from David Rickman at Weill Cornell Medicine (New York, NY, USA) and were cultured in RPMI supplemented with 10% FBS.
Viability of N-Myc -overexpressing LNCaP and 22Rv1 was done with 5000 cells per well in RPMI supplemented with 10% FBS and read with Cell Titer Glo (Promega, cat# G7572; Madison, WI, USA) according to the manufacturer’s protocol. Eagle’s minimum essential medium (EMEM) supplemented with 10% FBS was used for the Myc-negative HO15.19 cells at 2000 cells per well and 20,000 neuroendocrine NCI-H660 cells were plated in RPMI supplemented with 5% FBS, 1% Isulin-Transferrin-Selenium (Thermo Fisher, 41400-045), 10 nM b-estradiol (Sigma, E8875), 10 nM hydrocortisone (Sigma H0888), and 1% matrigel. […]

[3] = tested on: NCI-H660 cells; assay: Cell viability assay, NCI-H660; type: cell-based; settings: 72 h; for Inhibitory activity in NCI-H660: 1 μM; for viability at 5 µM / viability at 10 µM: NCI-H660, read-out: % activation (cell viability) in NCI-H660
Experimental: as §1
(§2) Viability of N-Myc -overexpressing LNCaP and 22Rv1 was done with 5000 cells per well in RPMI supplemented with 10% FBS and read with Cell Titer Glo (Promega, cat# G7572; Madison, WI, USA) according to the manufacturer’s protocol. Eagle’s minimum essential medium (EMEM) supplemented with 10% FBS was used for the Myc-negative HO15.19 cells at 2000 cells per well and 20,000 neuroendocrine NCI-H660 cells were plated in RPMI supplemented with 5% FBS, 1% Isulin-Transferrin-Selenium (Thermo Fisher, 41400-045), 10 nM b-estradiol (Sigma, E8875), 10 nM hydrocortisone (Sigma H0888), and 1% matrigel. All cells were incubated for 72 h with the compounds.

[4] = tested on: 22Rv1 cells; assay: Cell viability assay, 22Rv1; type: cell-based, human; settings: for Inhibitory activity in 22Rv1: 1 μM; for Inhibitory activity in 22Rv1 / viability at 5 µM / viability at 10 µM / IC50: 72 h; for viability at 5 µM / viability at 10 µM / IC50: Homo sapiens, 22Rv1; for viability at 5 µM / viability at 10 µM: read-out: % activation (cell viability) in 22Rv1; for IC50 / Growth inhibition of 22Rv1 cells: serial dilution; for IC50: read-out: IC50, growth inhibition of 22Rv1 cells; for Growth inhibition of 22Rv1 cells: up to 10 µM
Experimental: as §1, §2

[5] = tested on: LNCaP cells; assay: Cell viability assay, LNCaP; type: cell-based, human; settings: for Inhibitory activity in LNCaP: 1 μM; for Inhibitory activity in LNCaP / viability at 5 µM / viability at 10 µM / IC50: 72 h; for viability at 5 µM / viability at 10 µM / IC50: Homo sapiens, LNCaP; for viability at 5 µM / viability at 10 µM: read-out: % activation (cell viability) in LNCaP; for IC50 / Growth inhibition of LNCaP cells: serial dilution; for IC50: read-out: IC50, growth inhibition of LNCaP cells; for Growth inhibition of LNCaP cells: up to 10 µM
Experimental: LNCaP were plated at 5000 cells per well in RPMI 1640 containing 5% CSS in a 96-well plate, treated with test compounds (0–25 μM) for 72 h. Cell density was measured using the PrestoBlue assay according to the manufacturer’s protocol. The percentage of cell survival was normalized to the cell density of control wells treated by vehicle. […]

[6] = tested on: Myc-Max; assay: Myc-Max luciferase transcription inhibition (Cignal Myc reporter) assay in LNCaP cells; type: cell-based; settings: Homo sapiens, 24 h, 0-25 μM, 1 day
Experimental: The eGFP Myc transcriptional activity was assayed as previously described. Briefly, cell transfection was performed using TransIT-2020 transfection reagents according to the manufacturer’s instructions. LNCaP cells were plated at 10,000 cells per well and treated for 1 day with the indicated concentration of compound with increasing concentrations (0−25 μM) of compounds for screening and measuring IC50. Myc reporter activity was measured using the Cignal Myc Reporter Assay Kit from Qiagen (#336841; Hilden, Germany) according to the manufacturer’s instructions.

[7] = target: T1, AURKA (Homo sapiens, UniProt O14965); assay: Aurora A kinase activity assay (ADP-Glo); type: biochemical; settings: read-out: AURKA enzyme activity remaining
T1 construct: 10 ng Aurora-A catalytic domain
T1 sequence (O14965 133-383 limits assumed): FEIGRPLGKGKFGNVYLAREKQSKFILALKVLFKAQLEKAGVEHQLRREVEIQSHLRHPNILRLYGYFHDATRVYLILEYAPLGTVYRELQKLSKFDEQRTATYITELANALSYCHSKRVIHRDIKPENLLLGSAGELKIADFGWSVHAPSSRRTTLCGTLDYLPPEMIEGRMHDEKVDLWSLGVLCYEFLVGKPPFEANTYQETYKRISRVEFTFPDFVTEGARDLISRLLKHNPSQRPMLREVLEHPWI
Experimental: AURKA kinase assays were performed using the ADP-Glo Kinase assay (Promega) according to the manufacturer protocol. Measurement of Aurora-A activity was carried out using reactions containing (per well):10 ng Aurora-A catalytic domain, 50 uM ATP, and 0.5 myelin basic protein (MBP), in 5% dimethyl sulfoxide (DMSO). Reactions were incubated at room temperature for 60 min, and luminescence data (integration time: 0.5–1 s) was recorded on a Tecan M200 Pro reader (Männedorf, Switzerland).

Sequence of N-Myc-Max DBD (P04198 377-464): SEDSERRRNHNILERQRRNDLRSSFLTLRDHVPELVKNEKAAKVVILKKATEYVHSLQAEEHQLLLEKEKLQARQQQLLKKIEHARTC
Sequence of N-Myc-Max DBD (P61244 22-102): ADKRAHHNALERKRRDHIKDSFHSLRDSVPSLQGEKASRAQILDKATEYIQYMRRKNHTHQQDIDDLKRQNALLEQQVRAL

Disruption of DNA binding to N-Myc-Max DBD (BLI) [1]	IC50 [4]	IC50 [5]	IC50 [6]	Structure (SMILES)	Inhibitory activity in NCI-H660 [3]	viability at 5 µM [3]	viability at 10 µM [3]	Inhibitory activity in 22Rv1 [4]	viability at 5 µM [4]	viability at 10 µM [4]	Inhibitory activity in LNCaP [5]	viability at 5 µM [5]	viability at 10 µM [5]	Growth inhibition of 22Rv1 cells [4]	Growth inhibition of LNCaP cells [5]	also measured
weak disruption	15.6 µM	11.1 µM	4 µM	N#Cc1ccc(NNC(=O)c2ccc(C(F)(F)F)cc2)c(C(F)(F)F)c1 [compound 70551, N′-[4-cyano-2-(trifluoromethyl)phenyl]-4-(trifluoromethyl)benzohydrazide]	no significant inhibitory activity	> 75%	49.2%	no significant inhibitory activity	> 75%	78.8%	no significant inhibitory activity	> 75%	49.7%	–	–	Toxicity in HO15.19 ([2]; 20 μM, 120 h): slight toxicity; Effect on HO15.19 growth ([2]; N-Myc null cell line, 120 h, below 20 μM): minimal effect
–	–	–	–	CCc1ccc(/C=C2/SC(=S)NC2=O)cc1 [10058-F4, reference compound]	–	–	–	–	–	–	–	–	–	ineffective	ineffective	–
–	–	–	–	O=C(Nc1ccc(Nc2nccc(Nc3cc(C4CCCC4)[nH]n3)n2)cc1)Nc1cccc(C(F)(F)F)c1 [CD532, reference compound]	–	–	–	–	–	–	–	–	–	–	–	Cytotoxicity in N-Myc negative cell line HO15.19 ([2]; 10, 5 and 1 µM, 72 h): cytotoxicity
effectively disrupt	3.71 µM	3.05 µM	2 µM	N#Cc1ccc(NNC(=O)c2ccc(Nc3nccc(Nc4cc(C5CCCC5)n[nH]4)n3)cc2)c(C(F)(F)F)c1 [compound 70812]	No discernable inhibitory activity	82.9%	52.1%	No discernable inhibitory activity	66.5%	16.6%	No discernable inhibitory activity	32.5%	1.4%	–	–	remaining activity at 5 µM ([7]; 5 µM compound): 21.1%; remaining activity at 10 µM ([7]; 10 µM compound): 19.9%; remaining activity at 15 µM ([7]; 15 µM compound): 18.7%; remaining activity at 30 µM ([7]; 30 µM compound): 21.4%
–	–	–	–	O=[N+]([O-])c1ccc(Nc2ccccc2-c2ccccc2)c2nonc12 [10074-G5, reference compound]	–	–	–	–	–	–	–	–	–	ineffective	ineffective	–
